US10414811B2, “Protease-resistant lipidated GLP-1 analogs” (MEDIMMUNE LIMITED, priority 2015, dated 2019)
Where two headings read alike, the source gives them in different places. Numbered stars: 1 amine (or outer) side, 2 acyl side, 3 side chain; on linkers, the order of the positions; unused ones are H or OH. Square brackets hold non-standard residues; d marks the D form. Side chains are listed from the residue outwards. Peptide text beside a SMILES is read from it. * marks the point of attachment. γGlu = O=C(O)[C@H](CCC(=O)[*:2])N[*:1]; αMeF = C[C@](N)(Cc1ccccc1)C(=O)O; αMeK = C[C@](N)(CCCCN)C(=O)O; Lauroyl = CCCCCCCCCCCC(=O)*; αMeS = C[C@](N)(CO)C(=O)O; AEEA = NCCOCCOCC(=O)O; Aib = CC(C)(N)C(=O)O

Experiments:
[1] = target: T1, pepsin (Sus scrofa, UniProt P00791); assay: Proteolytic resistance to pepsin (% remaining intact peptide, RP-HPLC AUC); format: in vitro ADME; conditions: pig, porcine pepsin, 37° C., pH 2.0, read-out: Percentage remaining intact peptide (AUC by RP-HPLC) upon incubation with pepsin
T1 construct: purchased Sigma P7012
Experimental: Lyophilized porcine […] pepsin (Sigma: P7012) was reconstituted to afford a solution of 200 μg/mL (˜500 units/mL) in assay buffer (0.1 M HCl, pH 2.0) to give the enzyme stock solution. […] Ratio enzyme (units):peptide (μmoles)˜1:6. […] Ratio enzyme (units):peptide (μmoles)˜2:1.
Lyophilized porcine […] pepsin (Sigma: P7012) was reconstituted to 200 μg/mL (˜500 units/mL) in assay buffer (1.0 M HCl, pH 2.0) to give the enzyme stock solution.

[2] = target: T2, trypsin (Sus scrofa, UniProt P00761); assay: Proteolytic resistance to trypsin (% remaining intact peptide, RP-HPLC AUC); format: in vitro ADME; conditions: pig, porcine pancreatic trypsin, 37° C., pH 7.8, read-out: Percentage remaining intact peptide (AUC by RP-HPLC) upon incubation with trypsin
T2 construct: purchased Sigma T7409
Text: Ratio enzyme (units):peptide (μmoles)˜1:11. […] Ratio enzyme (units):peptide (μmoles)˜1.2:1.

[3] = target: T3, human GLP-1 receptor (GLP-1R) (Homo sapiens, UniProt P43220); assay: cAMP assay, human GLP-1R cells; format: cell-based; conditions: bis-lipidated peptides
T3 construct: expressed in transfected cells
In short: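 Peptide-stimulated cAMP measured by two-step HTRF after a 30 min room-temperature incubation with receptor-expressing cells (hGLP-1R, hGIPR at 1×10^5 cells/ml; hGCGR at 2×10^5 cells/ml). Duplicate dilutions; EC50 from 4-parameter logistic fit of % Delta F.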

[4] = target: T4, Neprilysin (Homo sapiens, UniProt P08473); assay: Proteolytic resistance to neprilysin (% remaining peptide, RP-HPLC AUC); format: in vitro ADME; conditions: 37° C., pH 8.3
T4 construct: purchased R&D Systems 1182-ZNC-010
Experimental: Ratio enzyme (units):peptide (μmoles)˜1:33. […] Ratio enzyme (units):peptide (μmoles)˜1:2.5.
15 μL aliquots (˜15 μg initial peptide) of the peptide-enzyme mixture were periodically withdrawn (t=0, 30 mins, 1 hr, 2 hr, 4 hr, 8 hr, 24 hr) and quenched immediately by addition to an equal volume (15 μL) of 5% TFA (v/v) in 1:1 water/acetonitrile to arrest proteolytic activity. 20 μL aliquots (˜10 μg initial peptide) were analyzed by LC/MS and/or analytical RP-HPLC as follows: LC/MS method: Agilent Polaris C8-A column (4.6×100 mm, 3 micron) eluted with a linear binary gradient of 10-90% MeCN (0.1% TFA v/v) in water (0.1% TFA v/v) over 30 mins at 1.5 mL min-1 at ambient temperature with detection by both UV absorption at 210 nm and ionization using a Waters 3100 mass detector (ESI+ mode). Peptide fragments deriving from enzymatic hydrolysis were identified by molecular weight, allowing location of the site of cleavage. Analytical RP-HPLC method: Agilent Polaris C8-A column (4.6×100 mm, 3 micron) eluted with a linear binary gradient of 10-90% MeCN (0.1% TFA v/v) in water (0.1% TFA v/v) over either 10 or 15 mins at 1.5 mL min^−1 at 40° C. with detection by UV absorption at 210 nm. Manual integration (AUC) allowed estimation of remaining intact peptide over the time course of the experiment.
25 μL aliquots (˜6 μg initial peptide) were analyzed by LC/MS and/or analytical RP-HPLC as follows: LC/MS method: Agilent Polaris C8-A column (4.6×100 mm, 3 micron) eluted with a linear binary gradient of 10-90% MeCN (0.1% TFA v/v) in water (0.1% TFA v/v) over 30 mins at 1.5 mL min^−1 at ambient temperature with detection by both UV absorption at 210 nm and ionization using a Waters 3100 mass detector (ESP mode). Peptide fragments deriving from enzymatic hydrolysis were identified by molecular weight, allowing location of the site of cleavage. Analytical RP-HPLC method: Agilent Polaris C8-A column (4.6×100 mm, 3 micron) eluted with a linear binary gradient of 10-90% MeCN (0.1% TFA v/v) in water (0.1% TFA v/v) over either 10 or 15 mins at 1.5 mL min^−1 at 40° C. with detection by UV absorption at 210 nm. Manual integration (AUC) allowed estimation of remaining intact peptide over the time course of the experiment.

[5] = Proteolytic resistance to fasted-state simulated intestinal fluid (FASSIF/Pancreatin); format: in vitro ADME; conditions: 37° C., read-out: Percentage remaining intact peptide (AUC by RP-HPLC) upon incubation with fasted-state simulated intestinal fluid (FASSIF/P)
Experimental: A fresh suspension of FASSIF/P (Fasted-State Simulated Intestinal Fluid+USP Pancreatin®) was prepared according to that described by Galia, Nicolaides, Hörter, Löbenberg, Reppas and Dressman: Pharm. Res. 15 (1998) 698-705. The resulting preparation is proteolytically equivalent to ˜375 units/mL (375 kU/L) and was used immediately without storage. Peptides for evaluation (1.0 mg, ˜250 nmoles) were initially dissolved in pre-warmed FASSIF without Pancreatin® (200 μL) to which was added pre-warmed fresh FASSIF/Pancreatin® (100 μL) to initiate potential digestion. Following momentary vortexing of the Eppendorf reaction tube the mixture was incubated at 37° C. in a thermostatic waterbath for the duration of the experiment. 25 μL aliquots of the co-incubated peptide-enzyme mixture were periodically withdrawn (t=0, 5 m, 10 m, 15 m, 30 m, 1 h, 2 h) and quenched immediately by addition to a solution of 10% TFA in 1:1 water/acetonitrile (75 μL) to arrest proteolytic activity.

[6] = target: T5, GLP-1R (INS1e assay) (Rattus norvegicus, UniProt P32301); assay: INS1e assay, cAMP activity at GLP-1R; format: cell-based; conditions: bis-lipidated peptides
T5 construct: endogenous in cells; host or cells: INS-1E cells
T5 sequence (P32301 22-463): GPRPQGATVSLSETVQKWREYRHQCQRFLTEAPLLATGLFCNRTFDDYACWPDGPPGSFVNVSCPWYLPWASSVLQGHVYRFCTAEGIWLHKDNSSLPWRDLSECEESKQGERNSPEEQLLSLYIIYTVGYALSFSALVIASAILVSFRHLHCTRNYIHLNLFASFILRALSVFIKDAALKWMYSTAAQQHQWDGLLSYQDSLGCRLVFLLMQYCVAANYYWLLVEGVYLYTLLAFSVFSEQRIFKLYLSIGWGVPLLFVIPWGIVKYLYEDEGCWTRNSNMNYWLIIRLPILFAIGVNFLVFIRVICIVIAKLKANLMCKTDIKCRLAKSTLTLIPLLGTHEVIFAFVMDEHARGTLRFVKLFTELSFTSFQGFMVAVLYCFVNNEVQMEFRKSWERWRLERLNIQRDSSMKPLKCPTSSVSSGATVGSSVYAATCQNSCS
In short: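 cAMP was quantified by two-step HTRF, using anti-cAMP cryptate donor and cAMP-d2 acceptor, each diluted 1/20 in conjugate and lysis buffer. EC50 values of the synthetic peptides were derived from the cAMP readout.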

T4 sequence (P08473 whole entry): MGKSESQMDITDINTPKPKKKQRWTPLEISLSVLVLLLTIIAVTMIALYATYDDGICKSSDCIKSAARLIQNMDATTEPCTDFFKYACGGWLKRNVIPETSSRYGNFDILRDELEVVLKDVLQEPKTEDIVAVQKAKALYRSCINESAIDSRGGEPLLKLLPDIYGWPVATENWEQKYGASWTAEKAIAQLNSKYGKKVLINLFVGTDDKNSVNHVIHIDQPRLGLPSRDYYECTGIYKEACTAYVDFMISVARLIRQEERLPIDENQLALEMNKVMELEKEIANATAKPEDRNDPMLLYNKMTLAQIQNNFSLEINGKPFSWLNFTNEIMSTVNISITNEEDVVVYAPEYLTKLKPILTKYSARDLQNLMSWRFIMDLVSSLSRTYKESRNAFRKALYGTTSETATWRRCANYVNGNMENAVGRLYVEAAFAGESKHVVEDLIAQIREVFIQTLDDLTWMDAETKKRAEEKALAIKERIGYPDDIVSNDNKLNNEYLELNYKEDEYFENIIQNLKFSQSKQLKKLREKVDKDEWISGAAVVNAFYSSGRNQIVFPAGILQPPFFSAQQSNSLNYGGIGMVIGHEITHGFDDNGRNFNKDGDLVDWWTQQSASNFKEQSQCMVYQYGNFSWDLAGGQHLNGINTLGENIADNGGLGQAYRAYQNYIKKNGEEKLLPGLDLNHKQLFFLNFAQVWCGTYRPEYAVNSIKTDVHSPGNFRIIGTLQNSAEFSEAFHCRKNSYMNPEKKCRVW
T2 sequence (P00761 9-231): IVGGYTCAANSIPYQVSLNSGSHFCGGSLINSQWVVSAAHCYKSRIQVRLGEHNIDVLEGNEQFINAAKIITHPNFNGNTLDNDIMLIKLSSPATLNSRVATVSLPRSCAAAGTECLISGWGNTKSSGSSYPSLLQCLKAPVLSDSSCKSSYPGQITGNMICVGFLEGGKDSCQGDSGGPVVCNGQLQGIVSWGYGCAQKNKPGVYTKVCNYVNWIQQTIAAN
T1 sequence (P00791 60-385): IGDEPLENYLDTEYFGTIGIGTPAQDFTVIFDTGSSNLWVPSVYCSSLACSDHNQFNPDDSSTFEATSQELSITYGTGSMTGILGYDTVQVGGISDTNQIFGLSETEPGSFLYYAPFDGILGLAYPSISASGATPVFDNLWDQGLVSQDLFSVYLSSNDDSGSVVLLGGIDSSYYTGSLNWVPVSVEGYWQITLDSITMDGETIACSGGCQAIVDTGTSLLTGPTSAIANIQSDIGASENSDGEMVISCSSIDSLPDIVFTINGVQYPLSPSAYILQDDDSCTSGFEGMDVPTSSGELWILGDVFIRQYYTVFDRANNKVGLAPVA
T3 sequence (P43220 24-463): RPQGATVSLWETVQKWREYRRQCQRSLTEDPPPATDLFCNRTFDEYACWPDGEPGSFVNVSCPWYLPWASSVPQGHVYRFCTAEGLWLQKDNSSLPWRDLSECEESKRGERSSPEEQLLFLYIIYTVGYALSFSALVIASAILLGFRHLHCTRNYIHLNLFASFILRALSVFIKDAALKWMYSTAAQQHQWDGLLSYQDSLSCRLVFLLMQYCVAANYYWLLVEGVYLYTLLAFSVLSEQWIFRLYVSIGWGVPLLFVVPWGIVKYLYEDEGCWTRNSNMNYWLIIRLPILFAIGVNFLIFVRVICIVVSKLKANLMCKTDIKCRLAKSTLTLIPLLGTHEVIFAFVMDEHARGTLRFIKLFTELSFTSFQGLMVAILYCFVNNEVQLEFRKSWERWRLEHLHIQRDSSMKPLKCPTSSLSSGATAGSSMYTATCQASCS

remaining at 0.5 h ([1]; t = 30 min): 57.7% | remaining at 1 h ([1]; t = 1 hr): 36% | remaining at 2 h ([1]; t = 2 hr): 14.3% | remaining at 4 h ([1]; t = 4 hr): 5.1% | remaining at 8 h ([1]; t = 8 hr): 1.1% | remaining at 24 h ([1]; t = 24 hr): 0% | remaining at 0.5 h ([2]; t = 30 min): 98.9% | remaining at 1 h ([2]; t = 1 hr): 97.2% | remaining at 2 h ([2]; t = 2 hr): 94.8% | remaining at 4 h ([2]; t = 4 hr): 89.8% | remaining at 8 h ([2]; t = 8 hr): 85% | EC50 ([3]; mean of n1 and n2, read-out: Primary assay EC50 Mean pM GLP-1R): 1.2 pM | EC50 ([3]; replicate n2, read-out: Primary assay EC50 GLP-1R n2): 1.45 pM | remaining at 0.5 h ([4]; recombinant neprilysin, t = 30 min): 98.3% | remaining at 1 h ([4]; recombinant neprilysin, t = 1 hr): 99.5% | remaining at 2 h ([4]; recombinant neprilysin, t = 2 hr): 97.7% | remaining at 4 h ([4]; recombinant neprilysin, t = 4 hr): 92.3% | remaining at 8 h ([4]; recombinant neprilysin, t = 8 hr): 91.2% | remaining at 24 h ([4]; recombinant neprilysin, t = 24 hr, read-out: Percentage remaining peptide (AUC at specified time-point by RP-HPLC) upon incubation with neprilysin, t = 24 hr): 91.9% | Percentage remaining peptide (AUC at specified time-point by RP-HPLC) upon incubation with neprilysin, t = 0 ([4]; t = 0): 100% | remaining at 5 min, […] ([5]; t = 5 m): 93.1% | remaining at 1 h, […] ([5]; t = 1 h): 35.1% | EC50 ([6]; mean of n1 and n2, read-out: INS1e assay EC50 Mean pM GLP-1R): 132 pM | EC50 ([6]; replicate n1, read-out: INS1e assay EC50 GLP-1R n1): 120 pM | EC50 ([6]; replicate n2, read-out: INS1e assay EC50 GLP-1R n2): 144 pM
SMILES: CCCCCCCCCCCC(=O)N[C@@H](CCC(=O)NCCOCCOCC(=O)NCCOCCOCC(=O)NCCCC[C@H](NC(=O)[C@H](C)NC(=O)[C@@H](NC(=O)[C@H](Cc1ccccc1)NC(=O)[C@H](CCC(=O)O)NC(=O)[C@](C)(CCCCN)NC(=O)[C@H](C)NC(=O)[C@H](C)NC(=O)[C@H](CCC(=O)O)NC(=O)CNC(=O)[C@H](CCC(=O)O)NC(=O)[C@H](CC(C)C)NC(=O)[C@H](CCCCNC(=O)COCCOCCNC(=O)COCCOCCNC(=O)CC[C@H](NC(=O)CCCCCCCCCCC)C(=O)O)NC(=O)[C@H](CO)NC(=O)[C@](C)(CO)NC(=O)[C@@H](NC(=O)[C@H](CC(=O)O)NC(=O)[C@H](CO)NC(=O)[C@@H](NC(=O)[C@](C)(Cc1ccccc1)NC(=O)[C@H](CO)NC(=O)CNC(=O)[C@H](CCC(=O)O)NC(=O)C(C)(C)NC(=O)[C@@H](N)Cc1c[nH]cn1)[C@@H](C)O)C(C)C)[C@@H](C)CC)C(=O)N[C@H](C(=O)N[C@H](C(=O)N[C@@H](CCC(=O)O)C(=O)NCC(=O)NCC(N)=O)C(C)C)C(C)C)C(=O)O [compound 263] (H-H[Aib]EGS[αMeF]TSDV[αMeS]SK([AEEA-AEEA-γGlu-Lauroyl])LEGEAA[αMeK]EFIAK([AEEA-AEEA-γGlu-Lauroyl])VVEGG-NH2)
